The source made the active and inactive calls. The calls are words filed in the database; no cut-off is given here.

Assay [1] is filed under the species Oryctolagus cuniculus. Description: (§1) Positive inotropic activity in New Zealand White rabbit beating left atrium assessed as increase in stroke volume at 100 umol/L after 36 mins. The assay is classed as functional. Conditions: Cardiac atrium.
The species named for assay [2] is Oryctolagus cuniculus. Description: Negative inotropic activity in New Zealand White rabbit beating left atrium assessed as decrease in stroke volume at 100 umol/L after incubation for longer period. The assay is classed as functional, tissue-based. Conditions: Cardiac atrium.
A short description of assay [3]: as §1. The assay is classed as functional, Oryctolagus cuniculus, Cardiac atrium.
For assay [4], the species on record is Oryctolagus cuniculus. The assay can be described thus: Positive inotropic activity in New Zealand White rabbit beating left atrium assessed as increase in stroke volume at 300 umol/L after 36 mins. In kind it is functional, tissue-based. The conditions noted are these: Cardiac atrium.
The species entered for assay [5] is Oryctolagus cuniculus. Description: Positive inotropic activity in New Zealand White rabbit beating left atrium assessed as increase in stroke volume after 36 mins. Conditions: Cardiac atrium. In kind it is functional, tissue-based.

Regarding `Cc1nnc2n1-c1ccc(NC(=O)C3CCN(Cc4ccc(F)cc4)CC3)cc1CC2`, the result in the assay listed under Oryctolagus cuniculus [1] was inactive.

Regarding `COc1cc(CN2CCC(C(=O)Nc3ccc4c(c3)CCc3nnc(C)n3-4)CC2)ccc1OCc1ccc(C)cc1`, the result in the assay filed under Oryctolagus cuniculus [1] was inactive.

On to `Cc1ccc(CN2CCC(C(=O)Nc3ccc4c(c3)CCc3nnc(C)n3-4)CC2)cc1`, for which the outcome in the assay listed under Oryctolagus cuniculus [1] was inactive.

Turning to `COc1cc(CN2CCC(C(=O)Nc3ccc4c(c3)CCc3nnc(C)n3-4)CC2)ccc1OCc1c(Cl)cccc1Cl`, in the assay filed under Oryctolagus cuniculus [1], the outcome was inactive.

Take `COc1cc(CN2CCC(C(=O)Nc3ccc4c(c3)CCc3nnc(C)n3-4)CC2)ccc1OCc1ccc(Cl)cc1`: the outcome in the assay listed under Oryctolagus cuniculus [2] was Active. The Activity in assay [3] came out at 5.13%.

Take `Cc1nnc2n1-c1ccc(NC(=O)C3CCN(Cc4ccccc4)CC3)cc1CC2`: the outcome in the assay listed under Oryctolagus cuniculus [1] was inactive.

Take `COc1ccc(COc2ccc(CN3CCC(C(=O)Nc4ccc5c(c4)CCc4nnc(C)n4-5)CC3)cc2OC)cc1`: the result in the assay listed under Oryctolagus cuniculus [2] was Active. For the same compound, in assay [3], the Activity is given as 6.08%.

In the case of `Cc1nnc2n1-c1ccc(NC(=O)C3CCN(Cc4ccc(Cl)cc4)CC3)cc1CC2`, the outcome in the assay filed under Oryctolagus cuniculus [1] was inactive.

Consider `COc1cc(CN2CCC(C(=O)Nc3ccc4c(c3)CCc3nnc(C)n3-4)CC2)ccc1OCc1cccc(F)c1`, for which the Activity in assay [3] turned out to be 0.18%.

Turning to `Cc1nnc2n1-c1ccc(NC(=O)C3CCN(Cc4ccc(Cl)cc4Cl)CC3)cc1CC2`, the outcome in the assay listed under Oryctolagus cuniculus [2] was Active. The Activity in assay [3] came out at 7.83%.

On to `Cc1nnc2n1-c1ccc(NC(=O)C3CCN(Cc4cccc(F)c4)CC3)cc1CC2`, for which the Activity in assay [3] is on record as 1.56%.

For `COc1cc(CN2CCC(C(=O)Nc3ccc4c(c3)CCc3nnc(C)n3-4)CC2)ccc1OCc1ccccc1Cl`, the result in the assay listed under Oryctolagus cuniculus [1] was inactive.

For the compound `COc1cc(CN2CCC(C(=O)Nc3ccc4c(c3)CCc3nnc(C)n3-4)CC2)ccc1OCc1ccccc1[N+](=O)[O-]`, the result in the assay listed under Oryctolagus cuniculus [1] was inactive.

On to `COc1cc(CN2CCC(C(=O)Nc3ccc4c(c3)CCc3nnc(C)n3-4)CC2)ccc1OCc1ccc(Cl)cc1Cl`, for which the Activity in assay [3] is 2.78%.

Regarding `COc1cc(CN2CCC(C(=O)Nc3ccc4c(c3)CCc3nnc(C)n3-4)CC2)ccc1OCc1ccccc1F`, in the assay filed under Oryctolagus cuniculus [4], the outcome was inactive. Moreover, the Activity entry in the assay listed under Oryctolagus cuniculus [5] was “Dose-dependent effect”; in assay [3] it was 7.41%.

In the case of `COc1cc(CN2CCC(C(=O)Nc3ccc4c(c3)CCc3nnc(C)n3-4)CC2)ccc1OCc1ccccc1`, in assay [3], the Activity turned out to be 5.19%.

As for `COc1ccc(CN2CCC(C(=O)Nc3ccc4c(c3)CCc3nnc(C)n3-4)CC2)cc1OC`, the Activity in assay [3] is 1.87%.

As for `Cc1nnc2n1-c1ccc(NC(=O)C3CCN(Cc4c(Cl)cccc4Cl)CC3)cc1CC2`, the outcome in the assay listed under Oryctolagus cuniculus [1] was inactive.

In the case of `Cc1nnc2n1-c1ccc(NC(=O)C3CCN(Cc4ccccc4F)CC3)cc1CC2`, in the assay filed under Oryctolagus cuniculus [4], the outcome was inactive. For the same compound, the results for the Activity result (in the assay filed under Oryctolagus cuniculus [5]; in assay [3]) were “Dose-dependent effect” and 11.92%, respectively.

Take `Cc1nnc2n1-c1ccc(NC(=O)C3CCN(Cc4cccc(Cl)c4)CC3)cc1CC2`: in assay [3], the Activity turned out to be 9.97%.

For the compound `Cc1nnc2n1-c1ccc(NC(=O)C3CCN(Cc4ccc5c(c4)OCO5)CC3)cc1CC2`, the Activity in assay [3] stood at 2.96%.

As for `COc1cc(CN2CCC(C(=O)Nc3ccc4c(c3)CCc3nnc(C)n3-4)CC2)ccc1OCc1cccc(Cl)c1`, the outcome in the assay filed under Oryctolagus cuniculus [2] was Active. The Activity in assay [3] is reported as 5.56%.

`COc1ccc(CN2CCC(C(=O)Nc3ccc4c(c3)CCc3nnc(C)n3-4)CC2)cc1`: the result in the assay filed under Oryctolagus cuniculus [1] was inactive.

Regarding `Cc1nnc2n1-c1ccc(NC(=O)C3CCN(Cc4ccccc4Br)CC3)cc1CC2`, the Activity in assay [3] worked out at 1.67%.

Regarding `COc1cc(CN2CCC(C(=O)Nc3ccc4c(c3)CCc3nnc(C)n3-4)CC2)ccc1OCc1cccc([N+](=O)[O-])c1`, the result in the assay filed under Oryctolagus cuniculus [1] was inactive.

For the compound `Cc1nnc2n1-c1ccc(NC(=O)C3CCN(Cc4cccc([N+](=O)[O-])c4)CC3)cc1CC2`, the Activity in assay [3] stood at 8.14%.

With `Cc1nnc2n1-c1ccc(NC(=O)C3CCN(Cc4ccccc4[N+](=O)[O-])CC3)cc1CC2`, the outcome in the assay listed under Oryctolagus cuniculus [1] was inactive.

`Cc1nnc2n1-c1ccc(NC(=O)C3CCN(Cc4ccccc4Cl)CC3)cc1CC2`: the outcome in the assay filed under Oryctolagus cuniculus [2] was Active. Also, the Activity in assay [3] was 0.4%.

`COc1cc(CN2CCC(C(=O)Nc3ccc4c(c3)CCc3nnc(C)n3-4)CC2)ccc1OCc1ccc(F)cc1`: the outcome in the assay filed under Oryctolagus cuniculus [1] was inactive.

In the case of `Cc1[nH]c(=O)c(C#N)cc1-c1ccncc1` [MILRINONE], the Activity in assay [3] is recorded as 6.36%.

As for `COc1cc(CN2CCC(C(=O)Nc3ccc4c(c3)CCc3nnc(C)n3-4)CC2)ccc1OCc1ccccc1Br`, the result in the assay listed under Oryctolagus cuniculus [1] was inactive.

For `COc1ccc(COc2ccc(CN3CCC(C(=O)Nc4ccc5c(c4)CCc4nnc(C)n4-5)CC3)cc2OC)cc1OC`, the outcome in the assay filed under Oryctolagus cuniculus [1] was inactive.

Source of the values: ChEMBL document CHEMBL1138471, “Synthesis and inotropic evaluation of 1-substituted-N-(4,5-dihydro-1-methyl-[1,2,4]triazolo[4,3-a]quinolin-7-yl)piperidine-4-carboxamides” (2009).
